Patent US5439812A, “Antibodies catalyzing deamidation of proteins” (The Pennsylvania Research Corporation, priority 1992, dated 1995)
Where a name gives a salt, the structure may show the parent alone. Square brackets hold non-standard residues; d marks the D form. Peptide text beside a SMILES is read from it. * marks the point of attachment. ξ: configuration not given here. NHPhenethyl = c1ccc(CCN*)cc1; ξN = NC(=O)CC(N)C(=O)O

Assays:
[1] = tested on: monoclonal catalytic antibody 2E4 raised to the RG2 hapten-KLH conjugate; assay: deamidation of the Asn-Gly substrate catalysed by antibody 2E4 (glutamate dehydrogenase coupled ammonia assay); assay type: biochemical, mouse
Excerpt: (§1) The resulting hybridomas are subjected to a preliminary screening for binding to the hapten using standard methods specifically as described in U.S. Pat. No. 5,079,152 to Benkovic et al, noted above. […] This assay is chosen to specifically screen for those antibodies which catalyze the deamidation reaction and assays by the determination of ammonia. The procedure is a modification of known procedures which use glutamate dehydrogenase to detect ammonia. (See Foncesca-Wollheim, F. Clin. Chem., […], 1483-1487 (1990), and von Anken, H. D., Schiphorst, M. E., Clinica Chimica Acta, 56, 151-157 (1974)).
The deamidation to the cyclic imide intermediate is assayed by a spectrophotometric procedure coupling the antibody-catalyzed reaction to the enzyme glutamate dehydrogenase. Glutamate dehydrogenase utilizes the ammonia produced from the antibody-catalyzed deamidation reaction to convert alpha-ketoglutarate into glutamic acid, oxidizing nicotimamide dinucleotide phosphate in the process (NADPH is oxidized to NADP). The glutamate dehydrogenase reaction is monitored spectrophotometrically.
Thirty antibodies are picked for assay for catalytic activity. The antibodies are delivered in phosphate buffered saline solutions. These are then dialyzed into bicine buffer (pH 9.0, 0.10M) and 100 uL of the dialyzed solution was then added to a solution of bicine (166 uL, pH 9.0, 0.10M). To this is added 16.5 uL of a solution containing 400 uM NADPH, α-ketoglutarate, and adenosine diphosphate. This is mixed thoroughly and then 16.5 uL of analytical grade glutamate dehydrogenase (Boehringer Mannheim) is added and the solution is again mixed thoroughly. The reaction is initiated by addition of the substrate which is stored in a DMSO solution such that the total concentration of DMSO was 5%.
The solution is then transfered to a small cuvette and the decrease in absorbance at 340 nanometers is followed over a period of several hours. Control reactions are performed under identical conditions without the addition of antibody to the reaction mixture (bicine buffer was added in place of the antibody to maintain volume). The antibody catalyzed rate is determined by subtracting the overall rate (antibody-catalyzed and spontaneous rates) from the spontaneous rate determined from the control reaction.
This is not a Vmx since the substrate was not at total saturation of the antibody. The actual rate enhancement is probably greater. […]

[2] = tested on: monoclonal catalytic antibody 24C3 raised to the RG2 hapten-KLH conjugate; assay: deamidation of the Asn-Gly substrate catalysed by antibody 24C3 (glutamate dehydrogenase coupled ammonia assay); assay type: biochemical, mouse
Excerpt: as §1
The deamidation to the cyclic imide intermediate is assayed by a spectrophotometric procedure coupling the antibody-catalyzed reaction to the enzyme glutamate dehydrogenase. […] The glutamate dehydrogenase reaction is monitored spectrophotometrically. […]
The solution is then transfered to a small cuvette and the decrease in absorbance at 340 nanometers is followed over a period of several hours. […] The antibody catalyzed rate is determined by subtracting the overall rate (antibody-catalyzed and spontaneous rates) from the spontaneous rate determined from the control reaction. […]

SMILES | inhibition of antibody-catalysed deamidation by hapten [1] | inhibition of antibody-catalysed deamidation by hapten [2] | kcat ([1]; 2E4 investigated in more detail) | Km ([1]; 2E4 investigated in more detail, read-out: binding affinity for the substrate (Km)) [µM] | kcat ([1]; 25° C., bicine pH 9.0, substrate 451 uM, antibody 27.4 uM, not a Vmax, substrate not at total saturation) [h⁻¹] | kcat ([2]; not a true Vmax)
O=C(O)CCCC(=O)NC1CP(=O)(O)C(CC(=O)NCCc2ccccc2)C1O (stereo not drawn) [phospholane hapten, N-(Z-Phenylethyl)-[1'-hydroxyphosphol-3'-hydroxy-4'-(5-hydroxy-5-oxo-pentanoyl)amino-1'-oxo-2'-yl]acetamide disodium salt] | stoichiometrically inhibited | inhibition of this reaction with hapten |  |  |  | 
CC(=O)NC(CC(N)=O)C(=O)NCC(=O)NCCc1ccccc1 (stereo not drawn) [substrate, phenyl ethyl derivative of the asparaginyl-glycyl dipeptide] (Ac-[ξN]-Gly-NHPhenethyl) |  |  | 1.5±0.3×10^-4 s^-1 | 220 ± 10 | 0.416 | 0.352
